Laboratory results published in patent US8933039B2 (NPS Pharmaceuticals, Inc., priority 1995, dated 2015).
Non-standard residues stand in square brackets, D forms with d. Residues, ends and D or L forms follow the SMILES beside them. No end group written: not given here. Nle = CCCC[C@H](N)C(=O)O; Aib = CC(C)(N)C(=O)O

What was measured:
CD1 mice = test: Intestinotrophic activity assessment: small bowel weight in mice; format: in vivo; conditions: for % Activity (small bowel inducing activity relative to native rat GLP-2(1-33) = 100%): mice, as Example 4; for % Increase in small bowel weight: CD1 mice, 2.5 μg peptide s.c. b.i.d. in PBS, sacrificed 10 or 14 days, relative to vehicle only
Experimental: Recipients were CD1 mice obtained from Charles River Laboratory (Ontario, Canada). The CD1 mice were aged-matched females at time of injection (n=3-4 per group), 6 weeks of age, unless otherwise specified. The animals were allowed a minimum of 24 hours to acclimatize to the laboratory facility before the initiation of each experiment. Animals were identified by ear punch. The mice were not restricted by diet or activity during the experiments. The light/dark cycle was 12 hours, between 6 pm to 6 am. Controls were age- and sex-matched (n=3-4) animals. Mice were injected subcutaneously, twice a day (b.i.d.), with 2.5 μg peptide in a total volume of 0.5 cc of PBS and were monitored daily in the laboratory facility. Animals were sacrificed 10 or 14 days after injection, and were fasted at least 20 hours before sacrifice.
The mice were anaesthetised with CO2 and exsanguinated by cardiac puncture. Blood was collected in 75 μl of TED (Trasysol; EDTA (5000 KIU/ml: 1.2 mg/ml; Diprotin-A), and the blood was centrifuged at 14 k×g for 5 minutes and the plasma was stored at −70 prior to analysis. The small bowel was removed from the peritoneal cavity, from pylorus to cecum, cleaned weighed and measured. For comparative purpose, sections from each animal were obtained from the identical anatomical position. Fragments each measuring 1.5-2.0 cm in length were obtained 8±2 cm, 18±2 cm, 32±2 cm from pylorus for histomorphometry representing proximal jejunum, distal jejunum and distal ileum. Each small bowel fragment was opened longitudinally on its antimesenteric border in a tissue block and then placed on 10% formalin (vol./vol.) overnight, then transferred to 70% […].
Percentage change in small bowel weight was calculated by dividing the mean change in bowel weight of analog treated mice, relative to mice treated with vehicle only, by the mean bowel weight of mice treated with vehicle only, and multiplying this figure by 100.
Experiments assessing the small bowel inducing activity of various analogs was repeated as described above for Example 4. In these experiments, the small bowel inducing activity of each analog in mice was calculated relative to that of native rat GLP-2(1-33) (expressed as 100% of activity). Resistance of analogs to DPP-IV cleavage was performed as described above in Example 3.

DPP-IV = DPP-IV (Homo sapiens, UniProt P27487); test: Assay for resistance to dipeptidyl peptidase IV (RP-HPLC of cleavage product); conditions: human, isolated human placental DPP-IV (dipeptidyl peptidase IV), pH 7.4, % Cleaved by DPP-IV, as Example 3: human placental DPP-IV, 37° C., PBS pH 7.4
DPP-IV, sequence (P27487 whole entry): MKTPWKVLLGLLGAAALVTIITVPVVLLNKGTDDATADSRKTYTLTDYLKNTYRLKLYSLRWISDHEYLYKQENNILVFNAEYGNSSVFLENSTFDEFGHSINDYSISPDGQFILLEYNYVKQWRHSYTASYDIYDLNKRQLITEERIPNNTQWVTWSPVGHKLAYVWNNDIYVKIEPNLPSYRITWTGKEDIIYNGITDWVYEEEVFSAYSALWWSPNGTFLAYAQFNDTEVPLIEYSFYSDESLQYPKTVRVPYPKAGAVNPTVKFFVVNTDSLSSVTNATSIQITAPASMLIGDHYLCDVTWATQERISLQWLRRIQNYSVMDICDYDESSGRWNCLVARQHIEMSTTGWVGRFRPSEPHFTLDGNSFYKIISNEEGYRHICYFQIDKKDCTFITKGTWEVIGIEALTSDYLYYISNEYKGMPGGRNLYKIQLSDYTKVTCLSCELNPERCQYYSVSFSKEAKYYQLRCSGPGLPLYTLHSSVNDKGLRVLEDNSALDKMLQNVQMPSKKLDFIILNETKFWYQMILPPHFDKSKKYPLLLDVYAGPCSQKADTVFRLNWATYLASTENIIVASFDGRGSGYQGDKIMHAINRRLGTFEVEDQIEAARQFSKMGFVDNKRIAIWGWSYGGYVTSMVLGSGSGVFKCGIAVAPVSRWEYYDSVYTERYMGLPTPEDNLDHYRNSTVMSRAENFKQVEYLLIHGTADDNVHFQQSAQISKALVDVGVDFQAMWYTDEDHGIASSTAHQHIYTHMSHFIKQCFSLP

Molecule | % Activity (small bowel inducing activity relative to native rat GLP-2(1-33) = 100%) (CD1 mice) [%] | metabolised at 24 h, 0.19 mg/ml (DPP-IV) [%] | % Increase in small bowel weight (CD1 mice) [%]
H-HDDGSFSDEMNTILDNLAARDFINWLIQTKITD-OH [[Asp2]hGLP-2(1-33)] | 83 | 0 | 
H-HGDGSFSDEMNTILDNLAARDFIAWLIQTKITD-OH [[Gly2,Ala24]hGLP-2(1-33)] | 139 | 0 | 67
CC[C@H](C)[C@H](NC(=O)[C@H](Cc1ccccc1)NC(=O)[C@H](CC(=O)O)NC(=O)[C@H](CCCNC(=N)N)NC(=O)[C@H](C)NC(=O)[C@H](C)NC(=O)[C@H](CC(C)C)NC(=O)[C@H](CC(N)=O)NC(=O)[C@H](CC(=O)O)NC(=O)[C@H](CC(C)C)NC(=O)[C@@H](NC(=O)[C@@H](NC(=O)[C@H](CC(N)=O)NC(=O)[C@H](CCSC)NC(=O)[C@H](CCC(=O)O)NC(=O)[C@H](CC(=O)O)NC(=O)[C@H](CO)NC(=O)[C@H](Cc1ccccc1)NC(=O)[C@H](CO)NC(=O)CNC(=O)[C@H](CC(=O)O)NC(=O)C(C)(C)NC(=O)[C@@H](N)Cc1c[nH]cn1)[C@@H](C)O)[C@@H](C)CC)C(=O)N[C@@H](CC(N)=O)C(=O)N[C@@H](Cc1c[nH]c2ccccc12)C(=O)N[C@@H](CC(C)C)C(=O)N[C@H](C(=O)N[C@@H](CCC(N)=O)C(=O)N[C@H](C(=O)N[C@@H](CCCCN)C(=O)N[C@H](C(=O)N[C@H](C(=O)N[C@@H](CC(=O)O)C(=O)O)[C@@H](C)O)[C@@H](C)CC)[C@@H](C)O)[C@@H](C)CC [[Aib2]hGLP-2(1-33)] (H-H[Aib]DGSFSDEMNTILDNLAARDFINWLIQTKITD-OH) | 202 | 0 | 
H-HTDGSFSDEMNTILDNLAARDFINWLIQTKITD-OH [[Thr2]hGLP-2(1-33)] | 117 | 0 | 
HSQGSFSDEMNTILDNLAARDFINWLIQTKITD [[Ser2,Gln3]hGLP-2(1-33)] |  | 0 | 
RRADGSFSDEMNTILDNLATRDFINWLIQTKITD [[Arg-2,Arg-1]ratGLP-2(2-33)] |  | 0 | 
H-HADGSFSDEMNTILDNLATKDFINWLIQTKITD-OH [[Lys20]ratGLP-2(1-33)] | 120 |  | 62
H-HGDGSFSDEMNTIADNLAARDFINWLIQTKITD-OH [[Gly2,Ala14]hGLP-2(1-33)] | 30 |  | 
H-HGDGSFSAEMNTILDNLAARDFINWLIQTKITD-OH [[Gly2,Ala8]hGLP-2(1-33)] | 120 |  | 33
H-HGDGSFSDEMNTILDNLAAADFINWLIQTKITD-OH [[Gly2,Ala20]hGLP-2(1-33)] | 105 |  | 46
CCCC[C@H](NC(=O)[C@H](CCC(=O)O)NC(=O)[C@H](CC(=O)O)NC(=O)[C@H](CO)NC(=O)[C@H](Cc1ccccc1)NC(=O)[C@H](CO)NC(=O)CNC(=O)[C@H](CC(=O)O)NC(=O)[C@H](C)NC(=O)[C@@H](N)Cc1c[nH]cn1)C(=O)N[C@@H](CC(N)=O)C(=O)N[C@H](C(=O)N[C@H](C(=O)N[C@@H](CC(C)C)C(=O)N[C@@H](CC(=O)O)C(=O)N[C@@H](CC(N)=O)C(=O)N[C@@H](CC(C)C)C(=O)N[C@@H](C)C(=O)N[C@H](C(=O)N[C@@H](CCCNC(=N)N)C(=O)N[C@@H](CC(=O)O)C(=O)N[C@@H](Cc1ccccc1)C(=O)N[C@H](C(=O)N[C@@H](CC(N)=O)C(=O)N[C@@H](Cc1c[nH]c2ccccc12)C(=O)N[C@@H](CC(C)C)C(=O)N[C@H](C(=O)N[C@@H](CCC(N)=O)C(=O)N[C@H](C(=O)N[C@@H](CCCCN)C(=O)N[C@H](C(=O)N[C@H](C(=O)N[C@@H](CC(=O)O)C(=O)O)[C@@H](C)O)[C@@H](C)CC)[C@@H](C)O)[C@@H](C)CC)[C@@H](C)CC)[C@@H](C)O)[C@@H](C)CC)[C@@H](C)O [[Nlel0]ratGLP-2(1-33), [Nle^10]ratGLP-2(1-33)] (H-HADGSFSDE[Nle]NTILDNLATRDFINWLIQTKITD-OH) | 100 |  | 52
